From patent US20100189596A1, “COMPOSITE EMULSIFIER, AN EMULSION PREPARED FROM IT AND THE PREPARATION METHOD THEREOF” (SHENYANG PHARMACEUTICAL UNIVERSITY, priority 2007, published 2010)
Marks after values point to notes of the source that are not given here.

System: adriamycin-induced myocardial injury model in rat
Assay: Protective effects on adriamycin-induced myocardial injury model in rat
Format: in vivo, Wistar rats
Source text: Coenzyme Q10 can reduce the cardiotoxicity induced by adriamycin. In this experiment, to adriamycin-induced myocardial injury model in rat was constructed for detecting the effects of coenzyme Q10 nanoemulsion of protecting rats from adriamycin-induced myocardial injury.
40 Wistar rats (250±15 g, F/M=1:1) were randomly divided into five groups (8 animals each group): negative control group, ADM group, ADM+coenzyme Q10 (low dosage) group, ADM+coenzyme Q10 (medium dosage) group and ADM+coenzyme Q10 (high dosage) group. The control group received intraperitoneal injection of physiological saline at 10 mL/kg/d for 9 days. The ADM group received intraperitoneal injection of ADM at 3 mg/kg every other day for 5 times in total (9 days). The ADM+coenzyme Q10 (low, medium and high dosages) groups respectively received tail vein injection of coenzyme Q10 at 1.5, 3.0 and 6.0 mg/kg/d for 9 days, and ADM was administered at 3 mg/kg every other day for 5 times in total (9 days) (10 min after coenzyme Q10 injection, intraperitoneal injection of ADM 3 mg/kg was performed). The rats were sacrificed on the 10th day for histopathological examination and detection for the contents of malonaldehyde and SOD. The histopathological examination was performed by the steps of taking myocardial tissue from the left ventricular, fixing with 10% formaldehyde, slicing according to the conventional methods, and staining with HE.

[1] = ADM group, 3 mg/kg i.p. x5, n = 8
[2] = ADM group: ADM 3 mg/kg i.p. every other day, 5 times, n = 8

## COc1cccc2c1C(=O)c1c(O)c3c(c(O)c1C2=O)C[C@@](O)(C(=O)CO)C[C@@H]3O[C@H]1C[C@H](N)[C@H](O)[C@H](C)O1 [ADM, adriamycin]
ADM group (FIG. 2) compared with normal conditions
  alterations of rat electrocardiogram: absent P-wave, flattened T-wave, obviously reduced ST-T segment, and decreased QRS waves
[1]
  myocardial MDA (nmol/mg prot): 8.99 ± 1.17^a nmol/mg prot
  myocardial SOD (U/mg prot): 330.02 ± 15.39^a U/mg prot
[2]
  Pathological classification of myocardial injury: number of rats in grade II: 3
  Pathological classification of myocardial injury: number of rats in grade III: 5
Rats received intraperitoneal injection of ADM
  myocardial tissue slice (stained with HE): seriously injured
